Where “and” joins values, the source holds several entries; their conditions need not be identical. Identical values can stand only once. Numbers after ± are expanded uncertainties.
Settings: Liquid, Falling or rolling sphere viscometry

CCCCC(=O)OCC(COCC(COC(=O)CCCC)(COC(=O)CCCC)COC(=O)CCCC)(COC(=O)CCCC)COC(=O)CCCC
Settings	viscosity
283.15 K, 101.33 kPa	259 ± 18 mPa·s and 257.9 ± 18 mPa·s
288.15 K, 101.33 kPa	189.2 ± 12 mPa·s and 188.5 ± 12 mPa·s
293.15 K, 101.33 kPa	141.2 ± 8 mPa·s and 140.8 ± 8 mPa·s
298.15 K, 101.33 kPa	107.6 ± 5.7 mPa·s and 107.3 ± 5.7 mPa·s
303.15 K, 100 kPa	85.9 ± 4.3 mPa·s
303.15 K, 101.33 kPa	83.52 ± 4.2 mPa·s and 83.31 ± 4.1 mPa·s
303.15 K, 1000 kPa	87.2 ± 4.4 mPa·s
303.15 K, 5000 kPa	93.2 ± 4.7 mPa·s
303.15 K, 10000 kPa	101 ± 5 mPa·s
303.15 K, 20000 kPa	119 ± 6 mPa·s
303.15 K, 30000 kPa	139 ± 8 mPa·s
303.15 K, 40000 kPa	163 ± 10 mPa·s
303.15 K, 50000 kPa	189 ± 12 mPa·s
303.15 K, 60000 kPa	219 ± 14 mPa·s
308.15 K, 101.33 kPa	65.88 ± 3.2 mPa·s and 65.72 ± 3.1 mPa·s
313.15 K, 100 kPa	54.3 ± 2.6 mPa·s
313.15 K, 101.33 kPa	52.73 ± 2.5 mPa·s and 52.64 ± 2.5 mPa·s
313.15 K, 1000 kPa	55.1 ± 2.6 mPa·s
313.15 K, 5000 kPa	58.8 ± 2.8 mPa·s
313.15 K, 10000 kPa	63.6 ± 3 mPa·s
313.15 K, 20000 kPa	74.4 ± 3.6 mPa·s
313.15 K, 30000 kPa	86.6 ± 4.3 mPa·s
313.15 K, 40000 kPa	100 ± 5 mPa·s
313.15 K, 50000 kPa	116 ± 6 mPa·s
313.15 K, 60000 kPa	133 ± 7 mPa·s
318.15 K, 101.33 kPa	42.8 ± 2 mPa·s and 42.75 ± 2 mPa·s
323.15 K, 101.33 kPa	35.18 ± 1.7 mPa·s and 35.15 ± 1.7 mPa·s
328.15 K, 101.33 kPa	29.24 ± 1.4 mPa·s and 29.25 ± 1.4 mPa·s
333.15 K, 100 kPa	25 ± 1.2 mPa·s
333.15 K, 101.33 kPa	24.55 ± 1.2 mPa·s and 24.59 ± 1.2 mPa·s
333.15 K, 1000 kPa	25.4 ± 1.2 mPa·s
333.15 K, 5000 kPa	26.9 ± 1.3 mPa·s
333.15 K, 10000 kPa	29 ± 1.4 mPa·s
333.15 K, 20000 kPa	33.6 ± 1.6 mPa·s
333.15 K, 30000 kPa	38.6 ± 1.8 mPa·s
333.15 K, 40000 kPa	44.2 ± 2.1 mPa·s
333.15 K, 50000 kPa	50.3 ± 2.4 mPa·s
333.15 K, 60000 kPa	56.9 ± 2.7 mPa·s
338.15 K, 101.33 kPa	20.81 ± 0.99 mPa·s and 20.88 ± 1 mPa·s
343.15 K, 101.33 kPa	17.79 ± 0.85 mPa·s and 17.88 ± 0.85 mPa·s
348.15 K, 101.33 kPa	15.34 ± 0.73 mPa·s and 15.44 ± 0.74 mPa·s
353.15 K, 100 kPa	13.5 ± 0.7 mPa·s
353.15 K, 101.33 kPa	13.33 ± 0.64 mPa·s and 13.42 ± 0.64 mPa·s
353.15 K, 1000 kPa	13.6 ± 0.7 mPa·s
353.15 K, 5000 kPa	14.4 ± 0.7 mPa·s
353.15 K, 10000 kPa	15.45 ± 0.74 mPa·s
353.15 K, 20000 kPa	17.7 ± 0.8 mPa·s
353.15 K, 30000 kPa	20.1 ± 1 mPa·s
353.15 K, 40000 kPa	22.8 ± 1.1 mPa·s
353.15 K, 50000 kPa	25.7 ± 1.2 mPa·s
353.15 K, 60000 kPa	28.8 ± 1.4 mPa·s
358.15 K, 101.33 kPa	11.66 ± 0.56 mPa·s and 11.76 ± 0.56 mPa·s
363.15 K, 101.33 kPa	10.26 ± 0.49 mPa·s and 10.36 ± 0.49 mPa·s
368.15 K, 101.33 kPa	9.08 ± 0.43 mPa·s and 9.18 ± 0.44 mPa·s
373.15 K, 100 kPa	8.22 ± 0.39 mPa·s
373.15 K, 101.33 kPa	8.09 ± 0.39 mPa·s and 8.18 ± 0.39 mPa·s
373.15 K, 1000 kPa	8.32 ± 0.4 mPa·s
373.15 K, 5000 kPa	8.78 ± 0.42 mPa·s
373.15 K, 10000 kPa	9.38 ± 0.45 mPa·s
373.15 K, 20000 kPa	10.6 ± 0.5 mPa·s
373.15 K, 30000 kPa	12 ± 0.6 mPa·s
373.15 K, 40000 kPa	13.5 ± 0.6 mPa·s
373.15 K, 50000 kPa	15.2 ± 0.7 mPa·s
373.15 K, 60000 kPa	16.9 ± 0.8 mPa·s

CCCCCCC(=O)OCC(COCC(COC(=O)CCCCCC)(COC(=O)CCCCCC)COC(=O)CCCCCC)(COC(=O)CCCCCC)COC(=O)CCCCCC [dipentaerythritol hexaheptanoate]
Settings	viscosity
283.15 K, 101.33 kPa	260.7 ± 18 mPa·s and 259.1 ± 18 mPa·s
288.15 K, 101.33 kPa	191.1 ± 12 mPa·s and 190 ± 12 mPa·s
293.15 K, 101.33 kPa	143.1 ± 8.2 mPa·s and 142.2 ± 8.1 mPa·s
298.15 K, 101.33 kPa	109.2 ± 5.8 mPa·s and 108.5 ± 5.7 mPa·s
303.15 K, 100 kPa	86.3 ± 4.3 mPa·s
303.15 K, 101.33 kPa	84.89 ± 4.2 mPa·s and 84.39 ± 4.2 mPa·s
303.15 K, 1000 kPa	87.7 ± 4.4 mPa·s
303.15 K, 5000 kPa	93.9 ± 4.8 mPa·s
303.15 K, 10000 kPa	102 ± 5 mPa·s
303.15 K, 20000 kPa	121 ± 7 mPa·s
303.15 K, 30000 kPa	142 ± 8 mPa·s
303.15 K, 40000 kPa	167 ± 10 mPa·s
303.15 K, 50000 kPa	194 ± 12 mPa·s
303.15 K, 60000 kPa	226 ± 15 mPa·s
308.15 K, 101.33 kPa	67.04 ± 3.2 mPa·s and 66.67 ± 3.2 mPa·s
313.15 K, 100 kPa	55.8 ± 2.7 mPa·s
313.15 K, 101.33 kPa	53.73 ± 2.5 mPa·s and 53.45 ± 2.5 mPa·s
313.15 K, 1000 kPa	56.6 ± 2.7 mPa·s
313.15 K, 5000 kPa	60.3 ± 2.9 mPa·s
313.15 K, 10000 kPa	65.3 ± 3.1 mPa·s
313.15 K, 20000 kPa	76.3 ± 3.7 mPa·s
313.15 K, 30000 kPa	88.9 ± 4.5 mPa·s
313.15 K, 40000 kPa	103 ± 5 mPa·s
313.15 K, 50000 kPa	119 ± 6 mPa·s
313.15 K, 60000 kPa	138 ± 8 mPa·s
318.15 K, 101.33 kPa	43.66 ± 2.1 mPa·s and 43.45 ± 2.1 mPa·s
323.15 K, 101.33 kPa	35.93 ± 1.7 mPa·s and 35.77 ± 1.7 mPa·s
328.15 K, 101.33 kPa	29.91 ± 1.4 mPa·s and 29.79 ± 1.4 mPa·s
333.15 K, 100 kPa	25.5 ± 1.2 mPa·s
333.15 K, 101.33 kPa	25.18 ± 1.2 mPa·s and 25.07 ± 1.2 mPa·s
333.15 K, 1000 kPa	25.9 ± 1.3 mPa·s
333.15 K, 5000 kPa	27.5 ± 1.3 mPa·s
333.15 K, 10000 kPa	29.6 ± 1.4 mPa·s
333.15 K, 20000 kPa	34.3 ± 1.6 mPa·s
333.15 K, 30000 kPa	39.5 ± 1.9 mPa·s
333.15 K, 40000 kPa	45.3 ± 2.2 mPa·s
333.15 K, 50000 kPa	51.7 ± 2.4 mPa·s
333.15 K, 60000 kPa	58.8 ± 2.8 mPa·s
338.15 K, 101.33 kPa	21.39 ± 1 mPa·s and 21.31 ± 1 mPa·s
343.15 K, 101.33 kPa	18.32 ± 0.87 mPa·s and 18.27 ± 0.87 mPa·s
348.15 K, 101.33 kPa	15.82 ± 0.75 mPa·s and 15.79 ± 0.75 mPa·s
353.15 K, 100 kPa	13.8 ± 0.7 mPa·s
353.15 K, 101.33 kPa	13.77 ± 0.66 mPa·s and 13.75 ± 0.66 mPa·s
353.15 K, 1000 kPa	14 ± 0.7 mPa·s
353.15 K, 5000 kPa	14.8 ± 0.7 mPa·s
353.15 K, 10000 kPa	15.9 ± 0.8 mPa·s
353.15 K, 20000 kPa	18.2 ± 0.9 mPa·s
353.15 K, 30000 kPa	20.8 ± 1 mPa·s
353.15 K, 40000 kPa	23.6 ± 1.1 mPa·s
353.15 K, 50000 kPa	26.6 ± 1.3 mPa·s
353.15 K, 60000 kPa	30 ± 1.4 mPa·s
358.15 K, 101.33 kPa	12.06 ± 0.58 mPa·s
363.15 K, 101.33 kPa	10.64 ± 0.51 mPa·s
368.15 K, 101.33 kPa	9.44 ± 0.45 mPa·s and 9.45 ± 0.45 mPa·s
373.15 K, 100 kPa	8.46 ± 0.4 mPa·s
373.15 K, 101.33 kPa	8.42 ± 0.4 mPa·s and 8.43 ± 0.4 mPa·s
373.15 K, 1000 kPa	8.56 ± 0.41 mPa·s
373.15 K, 5000 kPa	9.04 ± 0.43 mPa·s
373.15 K, 10000 kPa	9.66 ± 0.46 mPa·s
373.15 K, 20000 kPa	11 ± 0.5 mPa·s
373.15 K, 30000 kPa	12.4 ± 0.6 mPa·s
373.15 K, 40000 kPa	14 ± 0.7 mPa·s
373.15 K, 50000 kPa	15.7 ± 0.8 mPa·s
373.15 K, 60000 kPa	17.5 ± 0.8 mPa·s

Source: the NIST ThermoML archive (doi:10.1021/je100057b)
